From patent US10702592B2, “Peptides and combination of peptides for use in immunotherapy against NHL and other cancers” (Immatics Biotechnologies GmbH, priority 2016, dated 2020) come the findings set out here.

The subject of one assay is CD8+ T cells. Nature of the assay: In vitro T-cell priming immunogenicity assay (aAPC with pMHC and anti-CD28, multimer staining). It is filed as cell-based, human. As to conditions: HLA-A*02 restricted peptides; percentage of positive wells and donors (among evaluable). The text has this: In order to obtain information regarding the immunogenicity of the TUMAPs of the present invention, the inventors performed investigations using an in vitro T-cell priming assay based on repeated stimulations of CD8+ T cells with artificial antigen presenting cells (aAPCs) loaded with peptide/MHC complexes and anti-CD28 antibody.
In order to perform in vitro stimulations by artificial antigen presenting cells loaded with peptide-MHC complex (pMHC) and anti-CD28 antibody, the inventors first isolated CD8+ T cells from fresh HLA-A*02 leukapheresis products via positive selection using CD8 microbeads (Miltenyi Biotec, Bergisch-Gladbach, Germany) of healthy donors obtained from the University clinics Mannheim, Germany, after informed consent.
PBMCs and isolated CD8+ lymphocytes were incubated in T-cell medium (TCM) until use consisting of RPMI-Glutamax (Invitrogen, Karlsruhe, Germany) supplemented with 10% heat inactivated human AB serum (PAN-Biotech, Aidenbach, Germany), 100 U/ml Penicillin/100 μg/ml Streptomycin (Cambrex, Cologne, Germany), 1 mM sodium pyruvate (CC Pro, Oberdorla, Germany), 20 μg/ml Gentamycin (Cambrex). 2.5 ng/ml IL-7 (PromoCell, Heidelberg, Germany) and 10 U/ml IL-2 (Novartis Pharma, Nurnberg, Germany) were also added to the TCM at this step.
Generation of pMHC/anti-CD28 coated beads, T-cell stimulations and readout was performed in a highly defined in vitro system using four different pMHC molecules per stimulation condition and 8 different pMHC molecules per readout condition.
The purified co-stimulatory mouse IgG2a anti human CD28 Ab 9.3 (Jung et al., 1987) was chemically biotinylated using Sulfo-N-hydroxysuccinimidobiotin as recommended by the manufacturer (Perbio, Bonn, Germany). Beads used were 5.6 μm diameter streptavidin coated polystyrene particles (Bangs Laboratories, Illinois, USA).
800.000 beads/200 μl were coated in 96-well plates in the presence of 4×12.5 ng different biotin-pMHC, washed and 600 ng biotin anti-CD28 were added subsequently in a volume of 200 μl. Stimulations were initiated in 96-well plates by co-incubating 1×10^6 CD8+ T cells with 2×10^5 washed coated beads in 200 μl TCM supplemented with 5 ng/ml IL-12 (PromoCell) for 3 days at 37° C. Half of the medium was then exchanged by fresh TCM supplemented with 80 U/ml IL-2 and incubating was continued for 4 days at 37° C. This stimulation cycle was performed for a total of three times. For the pMHC multimer readout using 8 different pMHC molecules per condition, a two-dimensional combinatorial coding approach was used as previously described (Andersen et al., 2012) with minor modifications encompassing coupling to 5 different fluorochromes. Finally, multimeric analyses were performed by staining the cells with Live/dead near IR dye (Invitrogen, Karlsruhe, Germany), CD8-FITC antibody clone SK1 (BD, Heidelberg, Germany) and fluorescent pMHC multimers. For analysis, a BD LSRII SORP cytometer equipped with appropriate lasers and filters was used. Peptide specific cells were calculated as percentage of total CD8+ cells. Evaluation of multimeric analysis was done using the FlowJo software (Tree Star, Oregon, USA). In vitro priming of specific multimer+CD8+ lymphocytes was detected by comparing to negative control stimulations.

The next assay deals with HLA-A*02:01 (Homo sapiens, UniProt P04439, D140Y/D185E/D98H/E176V/E277Q/G131W/G231S/I119V/I121R/I166T/I218V/L300P/L318F/N151K/N90K/P208A/P217A/Q86G/Q94H/R138H/R169H/T345S). The experiment in a line: MHC binding assay (UV-ligand exchange, beta2m ELISA). As to conditions: binding to HLA-A*02:01, UV-ligand exchange. In short, it runs like this:
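Peptide–MHC complexes formed by UV-ligand exchange, cleaving a UV-sensitive peptide so the test peptide can bind. Exchange yield measured by ELISA: complexes captured on streptavidin-coated wells, diluted 100-fold, detected with HRP anti-β2m (1 h, 37 °C) and TMB at 450 nm, against refolded HLA-A*02:01/MLA-001 standards (15-500 ng/ml).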

Take “17 (VIIPLLSSV; listed as Homo sapiens) [compound 17]”: in the assay with CD8+ T cells, the “Wells positive [%]” value was ““++” (20% - 49% = ++)”. For the same substance, in the assay with HLA-A*02:01, the “Peptide exchange (MHC class I binding score, peptide exchange yield)” value (“Peptide exchange” below) is reported as ““+++” (≥50 = +++)”.
As to “19 (VLEAILPLV; listed as Homo sapiens) [compound 19]”, the “Wells positive [%]” value in the assay on CD8+ T cells is listed as ““+” (<20% = +)”. Besides, the “Peptide exchange” value in the assay with HLA-A*02:01 is on record as ““++++” (≥75% = ++++)”.
“21 (ALFKEAYSL; listed as Homo sapiens) [compound 21]”: the “Wells positive [%]” value with CD8+ T cells was ““+” (<20% = +)”. Besides, the “Peptide exchange” value with HLA-A*02:01 is recorded as ““+++” (≥50 = +++)”.
As to “22 (ALKKHLTSV; listed as Homo sapiens) [compound 22]”, the “Wells positive [%]” value with CD8+ T cells was ““++++” (≥70% = ++++)”. The “Peptide exchange” value in the assay with HLA-A*02:01 is reported as ““+++” (≥50 = +++)”.
Taken in the same sequence, the figures for “24 (AVLGFSFRL; listed as Homo sapiens) [compound 24]” were ““++++” (≥70% = ++++)” and ““+++” (≥50 = +++)”.
For “25 (FLDTSNQHLL; listed as Homo sapiens) [compound 25]”, in the assay with CD8+ T cells, the “Wells positive [%]” value is ““+” (<20% = +)”. Further, the “Peptide exchange” value in the assay with HLA-A*02:01 was ““+++” (≥50 = +++)”.
Taken in the same sequence, the figures for “26 (FLGSFIDHV; listed as Homo sapiens) [compound 26]” were ““+” (<20% = +)” and ““+++” (≥50 = +++)”.
In the case of “27 (FLNQESFDL; listed as Homo sapiens) [compound 27]”, the “Wells positive [%]” value with CD8+ T cells is recorded as ““+” (<20% = +)”. For the same substance, the “Peptide exchange” value in the assay with HLA-A*02:01 is ““+++” (≥50 = +++)”.
Turning to “28 (FLSNANPSL; listed as Homo sapiens) [compound 28]”, the “Wells positive [%]” value in the assay with CD8+ T cells was ““++++” (≥70% = ++++)”. Also, in the assay with HLA-A*02:01, the “Peptide exchange” value is ““+++” (≥50 = +++)”.
Taken in the same sequence, the figures for “29 (ILSDVTQGL; listed as Homo sapiens) [compound 29]” were ““+” (<20% = +)” and ““+++” (≥50 = +++)”.
For the substance “30 (ILSTLDVEL; listed as Homo sapiens) [compound 30]”, the “Wells positive [%]” value in the assay with CD8+ T cells was ““++” (20% - 49% = ++)”. Further, in the assay with HLA-A*02:01, the “Peptide exchange” value is recorded as ““+++” (≥50 = +++)”.
With “33 (LLANIVPIAMLV; listed as Homo sapiens) [compound 33]”, the “Wells positive [%]” value in the assay on CD8+ T cells is ““+” (<20% = +)”. Further, the “Peptide exchange” value in the assay with HLA-A*02:01 is on record as ““++++” (≥75% = ++++)”.
Take “35 (SLSSERYYL; listed as Homo sapiens) [compound 35]”: in the assay on CD8+ T cells, the “Wells positive [%]” value is recorded as ““++++” (≥70% = ++++)”. Moreover, the “Peptide exchange” value with HLA-A*02:01 is reported as ““+++” (≥50 = +++)”.
Consider “36 (VILDIPLLFET; listed as Homo sapiens) [compound 36]”, for which the “Wells positive [%]” value in the assay with CD8+ T cells is ““++” (20% - 49% = ++)”. In the assay with HLA-A*02:01, the “Peptide exchange” value is ““+++” (≥50 = +++)”.
Taken in the same sequence, the figures for “37 (VLGNALEGV; listed as Homo sapiens) [compound 37]” were ““+” (<20% = +)” and ““+++” (≥50 = +++)”.
Regarding “40 (FLNSVIVDL; listed as Homo sapiens) [compound 40]”, in the assay with CD8+ T cells, the “Wells positive [%]” value is listed as ““+++” (50% - 69% = +++)”. The “Peptide exchange” value with HLA-A*02:01 is given as ““++++” (≥75% = ++++)”.
Consider “41 (ILASIFETV; listed as Homo sapiens) [compound 41]”, for which the “Wells positive [%]” value in the assay with CD8+ T cells was ““+++” (50% - 69% = +++)”. Besides, the “Peptide exchange” value in the assay with HLA-A*02:01 is on record as ““++++” (≥75% = ++++)”.
Regarding “42 (YLQDLVERA; listed as Homo sapiens) [compound 42]”, in the assay on CD8+ T cells, the “Wells positive [%]” value was ““+++” (50% - 69% = +++)”. The “Peptide exchange” value in the assay with HLA-A*02:01 was ““++++” (≥75% = ++++)”.
Taken in the same sequence, the figures for “43 (ALLEGVKNV; listed as Homo sapiens) [compound 43]” were ““++” (20% - 49% = ++)” and ““+++” (≥50 = +++)”.
Taken in the same sequence, the figures for “44 (FIIEEQSFL; listed as Homo sapiens) [compound 44]” were ““+” (<20% = +)” and ““+++” (≥50 = +++)”.
As to “46 (FLVEEIFQT; listed as Homo sapiens) [compound 46]”, the “Wells positive [%]” value in the assay with CD8+ T cells is listed as ““+” (<20% = +)”. The “Peptide exchange” value in the assay with HLA-A*02:01 was ““+++” (≥50 = +++)”.
Take “47 (GLLPKLTAL; listed as Homo sapiens) [compound 47]”: the “Wells positive [%]” value in the assay on CD8+ T cells is ““++” (20% - 49% = ++)”. For the same substance, the “Peptide exchange” value with HLA-A*02:01 is ““+++” (≥50 = +++)”.
With “51 (SLLGNSPVL; listed as Homo sapiens) [compound 51]”, the “Wells positive [%]” value in the assay on CD8+ T cells is on record as ““+++” (50% - 69% = +++)”. For the same substance, in the assay with HLA-A*02:01, the “Peptide exchange” value is ““++++” (≥75% = ++++)”.
As to “52 (VLLEDVDAAFL; listed as Homo sapiens) [compound 52]”, the “Wells positive [%]” value with CD8+ T cells is listed as ““+” (<20% = +)”. Besides, the “Peptide exchange” value in the assay with HLA-A*02:01 is listed as ““++++” (≥75% = ++++)”.
In the case of “53 (FLREYFERL; listed as Homo sapiens) [compound 53]”, the “Wells positive [%]” value with CD8+ T cells is on record as ““+++” (50% - 69% = +++)”. The “Peptide exchange” value with HLA-A*02:01 was ““++++” (≥75% = ++++)”.
Regarding “57 (LQIGDFVSV; listed as Homo sapiens) [compound 57]”, the “Wells positive [%]” value with CD8+ T cells is listed as ““++++” (≥70% = ++++)”. Moreover, the “Peptide exchange” value with HLA-A*02:01 is ““++++” (≥75% = ++++)”.
As to “59 (RLHREVAQV; listed as Homo sapiens) [compound 59]”, the “Wells positive [%]” value in the assay with CD8+ T cells was ““+” (<20% = +)”. Further, the “Peptide exchange” value with HLA-A*02:01 is listed as ““+++” (≥50 = +++)”.
Take “60 (SLLIDVITV; listed as Homo sapiens) [compound 60]”: the “Wells positive [%]” value with CD8+ T cells is on record as ““+++” (50% - 69% = +++)”. The “Peptide exchange” value with HLA-A*02:01 is recorded as ““+++” (≥50 = +++)”.
In the case of “61 (SLLNKDLSL; listed as Homo sapiens) [compound 61]”, in the assay with CD8+ T cells, the “Wells positive [%]” value was ““+” (<20% = +)”. Moreover, in the assay with HLA-A*02:01, the “Peptide exchange” value is given as ““++++” (≥75% = ++++)”.
Turning to “62 (ALAPYLDLL; listed as Homo sapiens) [compound 62]”, in the assay on CD8+ T cells, the “Wells positive [%]” value is ““++” (20% - 49% = ++)”. Moreover, in the assay with HLA-A*02:01, the “Peptide exchange” value was ““++++” (≥75% = ++++)”.
As to “66 (KLAPIPVEL; listed as Homo sapiens) [compound 66]”, the “Wells positive [%]” value in the assay with CD8+ T cells was ““++” (20% - 49% = ++)”. The “Peptide exchange” value with HLA-A*02:01 is ““++++” (≥75% = ++++)”.
“67 (LLATVNVAL; listed as Homo sapiens) [compound 67]”: the “Wells positive [%]” value in the assay with CD8+ T cells is on record as ““+” (<20% = +)”. Besides, the “Peptide exchange” value with HLA-A*02:01 is reported as ““++++” (≥75% = ++++)”.
Taken in the same sequence, the figures for “68 (QIAAFLFTV; listed as Homo sapiens) [compound 68]” were ““+++” (50% - 69% = +++)” and ““++++” (≥75% = ++++)”.
Regarding “73 (YLGEEYPEV; listed as Homo sapiens) [compound 73]”, the “Wells positive [%]” value in the assay on CD8+ T cells is given as ““+” (<20% = +)”. In addition, the “Peptide exchange” value in the assay with HLA-A*02:01 is given as ““+++” (≥50 = +++)”.
